How the values were obtained:
A419P TRPML3 [1] = biological target: T1, A419P TRPML3 (Homo sapiens, UniProt Q8TDD5, A419P); assay: IonWorks PPC patch clamp, inducible CHO-K1 cell line expressing A419P TRPML3; type: cell-based; settings: 4 mM GdCl3 solution
T1 construct: expressed in transfected cells
T1 sequence (Q8TDD5 1-553 A419P): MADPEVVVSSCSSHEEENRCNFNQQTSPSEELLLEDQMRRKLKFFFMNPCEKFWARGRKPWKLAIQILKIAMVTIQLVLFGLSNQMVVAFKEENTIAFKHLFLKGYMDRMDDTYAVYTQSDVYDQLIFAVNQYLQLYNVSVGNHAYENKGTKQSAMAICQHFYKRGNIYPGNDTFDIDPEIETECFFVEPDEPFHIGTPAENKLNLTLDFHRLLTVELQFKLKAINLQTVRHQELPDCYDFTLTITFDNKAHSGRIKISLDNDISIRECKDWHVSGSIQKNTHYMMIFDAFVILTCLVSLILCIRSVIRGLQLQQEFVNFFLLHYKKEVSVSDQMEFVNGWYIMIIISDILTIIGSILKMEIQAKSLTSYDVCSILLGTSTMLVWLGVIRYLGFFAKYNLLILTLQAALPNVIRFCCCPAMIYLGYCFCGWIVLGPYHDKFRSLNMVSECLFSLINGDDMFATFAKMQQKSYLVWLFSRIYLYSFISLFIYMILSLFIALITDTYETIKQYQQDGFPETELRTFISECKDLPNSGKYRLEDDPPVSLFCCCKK
From the text: Different versions of human TRPML3 can be assayed, included but not limited to a wild-type version and a gain of function mutant version encoding an A419P substitution. TRPML3 can be expressed in CHO-K1 cells by one of three methods: (i) transient transfection (ii) BacMam transduction or (iii) a stable transfection and TRPML3 function measured using the perforated patch clamp technique on an IonWorks Quattro instrument (MDS Analytical Technologies). Cells are dissociated with Detachin cell detachment solution (Genlantis), centrifuged, and resuspended in external recording buffer (150 mM NaCl, 2 mM KCl, 1.5 mM CaCl2, 1 mM MgCl2, 10 mM HEPES pH 7.4 with NaOH). […]
The following description illustrates the IonWorks screening assay to identify compounds that modulate (activate or block) TRPML3 function. […] In each scan currents are measured as the voltage is modified (see example voltage command trace in FIG. 29).
Compounds will be applied at concentrations between ˜1 uM and 100 uM. […] Compounds that enhance TRPML3 by affecting the voltage dependent rectification will be preferentially detected at −40 mV where the rectification is strong while compounds that block TRPML3 will be preferentially detected at −120 mV where the TRPML3 currents are larger. To quantitate the effect of a compound on TRPML3 function, we use the following formula: [(A−Ao)/(B−Bo)]×100. […]

A419P TRPML3 [2] = biological target: T1, A419P TRPML3; assay: FLIPR membrane potential dye assay, HEK293 cells expressing A419P-TRPML3; type: cell-based; settings: for effect on basal fluorescence, dose dependence: increasing concentrations of gadolinium, compared to RFP-transfected cells
From the text: Specific cell-based assays for the discovery of TRPML3 modulators were developed which that could ultimately be used in food and beverages to modulate saltiness perception. A419P-TRPML3 function was monitored in HEK293 cells transiently transfected or transduced with the gene encoding A419P-TRPML3 and using specific membrane potential dyes (FMPs; Molecular Devices).
(§1) HEK293 cells were transiently transfected with RFP, αENaC or A419P-TRPML3 and were loaded with a membrane potential dye (R-8034; Molecular Devices) in HBSS at room temperature for 30 minutes. Membrane potential (fluorescent signal) was monitored on a FLIPR system (Molecular Devices).
(§2) HEK293 cells were transiently transfected with RFP or A419P-TRPML3 and were loaded with a membrane potential dye (R-8034; Molecular Devices) in HBSS at room temperature for 30 minutes. Membrane potential (fluorescent signal) was monitored on a FLIPR system (Molecular Devices).
as §2, with “HBSS, NMDG and increasing concentrations of gadolinium were added to the cells and resulting changes in membrane” for “Membrane”
as §1, with “RFP, A419P-TRPML3 or” for “RFP,”, “plasmid” for “or A419P-TRPML3”, “HBSS (control), 3 mM gadolinium and 30 uM Amiloride were added to the cells and resulting changes in membrane” for “Membrane”

[Cl][Gd]([Cl])[Cl] [gadolinium, gadolinium chloride]
effect on TRPML3 current (IonWorks scan) (A419P TRPML3 [1]): blocks TRPML3 current | effect on basal fluorescence counts, specificity (A419P TRPML3 [2]; 3 mM gadolinium, A419P-TRPML3 versus αENaC transfected cells): preferentially reduces basal fluorescence counts | effect on basal fluorescence, dose dependence (A419P TRPML3 [2]): significantly reduces the basal fluorescence | effect on basal fluorescence, dose dependence (A419P TRPML3 [2]; listed as Gadolinium): reversed the increase in fluorescence in a dose-dependent and specific fashion | effect on basal fluorescence (membrane potential) (A419P TRPML3 [2]; transiently transfected HEK293, single addition of gadolinium): significantly reduces the basal fluorescence
